Measurements reported in patent publication US20250109387A1, “SMOOTH MUSCLE CELLS SEEDED IN MICROCHANNELS WITHIN HYDROGELS TO FORM FUNCTIONAL MEDIAL LAYERS IN ENGINEERED MICROVASCULATURE” (VANDERBILT UNIVERSITY, priority 2023, published 2025).

Test system: HASMCs
Experiment: Calcium imaging of HASMCs carrying GCaMP6f after ET-1 exposure
Assay type: cell-based, human
Settings: 500 nM endothelin-1; HASMCs cultured in flasks (2D) and in channels (3D); fluorescence microscopy
Experimental: Calcium imaging: HASMCs were infected with lentivirus carrying GCaMP6f and cultured in flasks (2D) and in channels (3D). Cells were then exposed to 500 nM endothelin-1 (ET-1, vasoconstrictor), and imaged via fluorescence microscopy (FIGS. 16A-16F).

## endothelin-1 [ET-1]
  intracellular Ca^2+ release (GCaMP6f fluorescence over time): substantial intracellular Ca^2+ release
